Measured values taken from publication PMC12864978, “Covalent modification of a glutamic acid inspired by HaloTag technology” (Nature Communications, 2026).

Legend:
[1] = Mouse plasma stability; format: in vitro ADME; conditions: 50% mouse plasma in PBS, within an hour
Source text: (§1) plotted as mean ± standard deviation, representative of 3 technical replicates ( N = 3). Unpaired, two-
(§2) Data were plotted as mean ± standard deviation, representative of 3 technical replicates in the presence

[2] = GSH adduct formation (stability in the presence of GSH); format: physicochemical; conditions: phosphate buffer with 10 mM GSH; 10-fold excess of GSH at 10 mM, phosphate buffer pH 7.4, 37 °C; read-out: half-life for GSH adduct formation t1/2 GSH (converted)
Experimental: (§3) Compound (1 mM) was incubated with the respective buffers (HEPES 20 mM, 150 mM NaCl, pH = 7.5; 0.2 M sodium acetate buffer, pH = 5.6; 0.2 M sodium citrate buffer, pH = 6.2; 0.2 M potassium phosphate buffer, pH = 7.4, 1 mM EDTA, with or without 10 mM GSH), with 1% DMSO adjusted for all conditions. […] Per cent (%) compound remaining in the solution was estimated by the ratio of areas under the curve, and data plotted were fitted to pseudo-1st kinetics in the calculation of rate constants (k) and half-lives (t1/2), where k is the negative slope of a linear regression of In (% compound remaining) over time. Half-lives (t1/2) in respective buffers and half-lives for GSH adduct formation (t1/2 GSH) were calculated with the following equations:1 t1/2=In2/k 2 kGSH=ktotalconsumptioninphosphatebufferinpresenceofGSH−k(phosphatebufferinabsenceofGSH) 3 t1/2GSH=In2/k(GSH) […]
(§4) a, Percentage (%) of compound remaining was monitored by HPLC-MS and data was fitted to pseudo-first kinetics in calculation of rate constants (k) and half-lives (t1/2) in respective buffers, where k is the negative slope of a linear regression of In (% compound remaining) over time and t 1/2 = In2/k. Initial […]
(§5) Initial GSH concentration =

[3] = biological target: T1, PDEδ in the presence of Arl2•GppNHp (Homo sapiens, UniProt O43924); experiment: Kinetics of covalent modification of PDEδ by MALDI in the presence of Arl2•GppNHp; format: binding; conditions: PDEδ: Arl2•GppNHp = 1:1, 3 eq. of 6a
T1 construct: His tag; made in house; host or cells: Escherichia coli Rosetta (BL21DE3), pET plasmids
T1 sequence (O43924 whole entry): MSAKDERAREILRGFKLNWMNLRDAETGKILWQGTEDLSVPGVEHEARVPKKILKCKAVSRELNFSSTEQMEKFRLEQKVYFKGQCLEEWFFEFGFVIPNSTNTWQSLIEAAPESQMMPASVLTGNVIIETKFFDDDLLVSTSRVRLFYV
Source text: Data are presented as mean ± s.e.m.
The solution was briefly centrifuged before a sample was taken at the designated time for analysis by MALDI. […] Mass spectra were obtained over the m/z range 15,000–25,000 using a Bruker UltrafleXtreme XIAL DI-TOF/TOF mass spectrometer. Percentages of covalent adduct formation were estimated by the relative intensity of the respective peaks in MALDI spectra.

[4] = Mouse liver microsomal stability; format: in vitro ADME
Source text: as §1, §2

[5] = test system: NCI-H358 cells; experiment: Real-time cell analysis (Incucyte) of proliferation; format: cell-based, human; conditions: Homo sapiens, NCI-H358, 72 h, NCI-H358; 72 h; read-out: cellular IC50
Experimental: (§6) Real-time cell analysis (RTCA) was conducted using an Incucyte S3 live-cell analysis system (Sartorius AG, Germany). […] Following attachment overnight, the medium was replaced with fresh medium containing test compounds, with all conditions adjusted to contain 0.5% DMSO. […] Phase-contrast images (2 images per well) were automatically captured at 2-h intervals until control wells (DMSO-treated) reached full confluency. Cell growth was quantified using the instrument’s integrated Basic Analyser module by applying a confluence mask to calculate the percentage of phase area confluence. […] Dose-response curves were generated and fitted via four-parameter variable slope nonlinear regression to determine cellular IC₅₀ values.

[6] = test system: MIA PaCa-2 cells; experiment: as above; format: cell-based, human
Experimental: as §6

[7] = test system: SW480 cells; experiment: as above; format: cell-based, human; conditions: Homo sapiens, 72 h, read-out: cellular IC50
Experimental: as §6

[8] = test system: BxPC-3 cells; experiment: as above; format: cell-based, human; conditions: Homo sapiens, 72 h, read-out: cellular IC50
Experimental: as §6

[9] = test system: PA-TU-8902 cells; experiment: as above; format: cell-based, human
Experimental: as §6

[10] = biological target: PDEδ (Homo sapiens, UniProt O43924); experiment: Mass spectrometry analysis of PDEδ adducts after Glu-C digestion; format: binding; design: His tag; made in house; host or cells: Escherichia coli Rosetta (BL21DE3), pET plasmids; conditions: LC-MS/MS, 10:1 compound to protein
Sequence of PDEδ (O43924 whole entry): as above
Experimental: For each replicate, 1.5 µg covalent adduct of PDEδ sample in PBS buffer was denatured, reduced, alkylated and digested by Glu-C and desalted, together with a negative control of unbound vehicle-treated PDEδ sample prior to mass spectrometry analysis. […] The final mixture containing 6.5 M guanidine hydrochloride was heated at 95 °C for 15 min. Subsequently, after cooling, 0.5 µl of a 50 mM dithiothreitol (DTT, cas 3483-12-3, Gerbu Biotechnik, #1008-100 g) solution was added. […] . Samples were incubated at 37 °C overnight with shaking at 400 rpm, protected from light. […] Desalting was carried out with stage tips with C18 extraction discs (Empore^TM high performance extraction discs, 47 mm, 3 M Bioanalytical Technologies #2215). Each stage tip, which consists of two stacked layers of C18 discs, was activated with methanol (100 µl), washed once with buffer B (100 µl, 0.1% formic acid, 80% acetonitrile), and twice with buffer A (100 µl/time, 0.1% formic acid). After sample loading and washing with buffer A once, the desalted sample was eluted with buffer B (20 µl/sample) and centrifuged at 500×g at room temperature for 5 min. Eluted samples were then dried in a SpeedVac at 30 °C.
Data evaluation was performed using MaxQuant software (v.2.2.0.0)[52]. […] Cleavages by Glu-C were analysed based on the enzyme that was used for digestion. […]

[11] = Compound stability in aqueous buffers; format: physicochemical
Experimental: as §3, §4, §5

Compound: Cc1ccc(-n2nc3c(=O)n(CCCCS(=O)(=O)N(CCc4cccc(CCBr)c4)CC4CCNCC4)nc(C)c3c2C)cc1 [6a]
- stability in mouse plasma [1]: stable in mouse plasma
- half-life at 1 mM [2]: 43.1 days
- rate of covalent PDEδ modification in the presence of Arl2•GppNHp [3]: comparable rate
- CLhep predicted ([4]; liver microsomes, translated from intrinsic clearance, mouse, read-out: in vivo clearance (simplified well-stirred model) (converted)): ~66.7 mL/min/kg
- microsomal stability in the absence of co-factor NADPH ([4]; mouse liver microsomes): metabolically stable
- microsomal CLint ([4]; mouse liver microsomes 0.5 mg/ml, + NADPH, read-out: intrinsic clearance): 117 µL/min/mg
- time to almost complete metabolism ([4]; mouse, liver microsomes, + NADPH): ≤ 50 min
- half-life ([4]; mouse, liver microsomes, + NADPH, read-out: half-life T1/2 in mouse liver microsomes): 0.00819 days
- IC50 [5]: 6.3 ± 3.5 µM
- % Growth rate of MIA PaCa-2 cells ([6]; 25 µM): 15%
- % Growth rate of MIA PaCa-2 cells ([6]; 50 µM): 15%
- IC50 ([6]; Homo sapiens, MIA PaCa-2, 72 h, read-out: cellular IC50): 7 ± 0.4 µM
- difference in cellular potency vs Deltazinone 1 ([6]; MIA PaCa-2): > 7 fold
- IC50 [7]: 18.6 ± 3 µM
- IC50 [8]: 20 ± 1.3 µM
- % Growth rate of PA-TU-8902 cells ([9]; 25 µM): 16%
- % Growth rate of PA-TU-8902 cells ([9]; 50 µM): 26%
- IC50 ([9]; Homo sapiens, PaTu 8902, PA-TU-8902, 72 h, read-out: cellular IC50): 6.8 ± 0.5 µM
- site of covalent modification in PDEδ [10]: either at p.E88 or p.E89
- half-life at 1 mM ([11]; HEPES buffer, pH 7.5, 37 °C, compound 1 mM, read-out: half-life t1/2 in HEPES buffer (converted)): 20 days
- half-life at 1 mM ([11]; acetate buffer, pH 5.6, 37 °C, read-out: half-life t1/2 in acetate buffer (converted)): 6.04 days
